{
  "source": "patent US9458123B2",
  "about": "“Methods, pharmaceutical compositions, therapeutic systems, and compounds for treating B cell malignancies” (University of Rochester, priority 2012, dated 2016)",
  "origin": "cited, not measured here",
  "target": "Ubc13 and Uev1A (Homo sapiens, UniProt P61088+Q13404)",
  "sequence (P61088 whole entry, species assumed)": "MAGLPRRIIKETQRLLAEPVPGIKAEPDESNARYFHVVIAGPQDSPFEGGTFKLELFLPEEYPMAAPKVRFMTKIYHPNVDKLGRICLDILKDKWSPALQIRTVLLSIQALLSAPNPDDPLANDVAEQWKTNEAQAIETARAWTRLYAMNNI",
  "sequence (Q13404 whole entry, species assumed)": "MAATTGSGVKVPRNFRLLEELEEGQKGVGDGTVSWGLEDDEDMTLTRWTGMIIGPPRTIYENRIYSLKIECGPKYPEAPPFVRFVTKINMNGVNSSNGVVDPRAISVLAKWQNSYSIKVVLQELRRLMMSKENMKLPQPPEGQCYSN",
  "settings": "previous studies; cited from earlier work",
  "data": [
    {"smiles": "C[C@@H](N)[C@@H](O)C/C=C\\C/C=C\\C/C=C\\C/C=C\\C/C=C\\C/C=C\\CCCCCC[C@H](O)[C@@H](C)N", "note": "[leucettamol A]", "values": [
      {"measurement": "complex formation between Ubc13 and Uev1A in vitro", "result": "inhibited"}
    ]}
  ]
}
